One assay addresses NaV 1.7 channel (Homo sapiens, UniProt Q15858). Briefly: Optical membrane potential assay, NaV 1.7 inhibition. Particulars: activity against NaV 1.7 channel. Type of assay: cell-based. On the procedure: (§1) Compounds of the invention are useful as antagonists of voltage-gated sodium ion channels. Antagonist properties of test compounds were assessed as follows. Cells expressing the NaV of interest were placed into microtiter plates. After an incubation period, the cells were stained with fluorescent dyes sensitive to the transmembrane potential. The test compounds were added to the microtiter plate. The cells were stimulated with either a chemical or electrical means to evoke a NaV dependent membrane potential change from unblocked channels, which was detected and measured with trans-membrane potential-sensitive dyes. Antagonists were detected as a decreased membrane potential response to the stimulus. The optical membrane potential assay utilized voltage-sensitive FRET sensors described by Gonzalez and Tsien (See, Gonzalez, J. E. and R. Y. Tsien (1995) “Voltage sensing by fluorescence resonance energy transfer in single cells” Biophys J 69(4): 1272-80, and Gonzalez, J. E. and R. Y. Tsien (1997) “Improved indicators of cell membrane potential that use fluorescence resonance energy transfer” Chem Biol 4(4): 269-77) in combination with instrumentation for measuring fluorescence changes such as the Voltage/Ion Probe Reader (VIPR®) (See, Gonzalez, J. E., K. Oades, et al. (1999) “Cell-based assays and instrumentation for screening ion-channel targets” Drug Discov Today 4(9): 431-439).
(§2) C) VIPR® Optical Membrane Potential Assay Method with Electrical Stimulation
(§3) The following is an example of how NaV1.3 inhibition activity is measured using the optical membrane potential method#2. Other subtypes are performed in an analogous mode in a cell line expressing the NaV of interest.
(§4) The electrical stimulation instrument and methods of use are described in ION Channel Assay Methods PCT/US01/21652, herein incorporated by reference. The instrument comprises a microtiter plate handler, an optical system for exciting the coumarin dye while simultaneously recording the coumarin and oxonol emissions, a waveform generator, a current-or voltage-controlled amplifier, and a device for inserting electrodes in well. Under integrated computer control, this instrument passes user-programmed electrical stimulus protocols to cells within the wells of the microtiter plate.
(§5) Assay Protocol • 1 Insert or use electrodes into each well to be assayed. • 2. Use the current-controlled amplifier to deliver stimulation wave pulses for 3 s. Two seconds of pre-stimulus recording are performed to obtain the un-stimulated intensities. Five seconds of post-stimulation recording are performed to examine the relaxation to the resting state.
(§6) Data are analyzed and reported as normalized ratios of background-subtracted emission intensities measured in the 460 nm and 580 nm channels. Background intensities are then subtracted from each assay channel. Background intensities are obtained by measuring the emission intensities during the same time periods from identically treated assay wells in which there are no cells. The response as a function of time is then reported as the ratios obtained using the following formula: […]
(§7) The data is further reduced by calculating the initial (Ri) and final (Rf) ratios. These are the average ratio values during part or all of the pre-stimulation period, and during sample points during the stimulation period. The response to the stimulus , ρ=Rf/Ri is then calculated.
(§8) Control responses are obtained by performing assays in the presence of a compound with the desired properties (positive control) and in the absence of pharmacological agents (negative control). Responses to the negative (N) and positive (P) controls are calculated as above. The activity A of the assay well relative to positive and negative controls is defined as: […]

The target in assay [1] is T1, NaV1.8 (Homo sapiens, UniProt Q9Y5Y9). Briefly: Optical membrane potential assay, NaV 1.8 inhibition. Type of assay: cell-based. Conditions: activity against NaV 1.8 channel. On the procedure: as §1, §2, §3, §4, §5, §6, §7, §8
Target sequence in this assay (Q9Y5Y9 whole entry): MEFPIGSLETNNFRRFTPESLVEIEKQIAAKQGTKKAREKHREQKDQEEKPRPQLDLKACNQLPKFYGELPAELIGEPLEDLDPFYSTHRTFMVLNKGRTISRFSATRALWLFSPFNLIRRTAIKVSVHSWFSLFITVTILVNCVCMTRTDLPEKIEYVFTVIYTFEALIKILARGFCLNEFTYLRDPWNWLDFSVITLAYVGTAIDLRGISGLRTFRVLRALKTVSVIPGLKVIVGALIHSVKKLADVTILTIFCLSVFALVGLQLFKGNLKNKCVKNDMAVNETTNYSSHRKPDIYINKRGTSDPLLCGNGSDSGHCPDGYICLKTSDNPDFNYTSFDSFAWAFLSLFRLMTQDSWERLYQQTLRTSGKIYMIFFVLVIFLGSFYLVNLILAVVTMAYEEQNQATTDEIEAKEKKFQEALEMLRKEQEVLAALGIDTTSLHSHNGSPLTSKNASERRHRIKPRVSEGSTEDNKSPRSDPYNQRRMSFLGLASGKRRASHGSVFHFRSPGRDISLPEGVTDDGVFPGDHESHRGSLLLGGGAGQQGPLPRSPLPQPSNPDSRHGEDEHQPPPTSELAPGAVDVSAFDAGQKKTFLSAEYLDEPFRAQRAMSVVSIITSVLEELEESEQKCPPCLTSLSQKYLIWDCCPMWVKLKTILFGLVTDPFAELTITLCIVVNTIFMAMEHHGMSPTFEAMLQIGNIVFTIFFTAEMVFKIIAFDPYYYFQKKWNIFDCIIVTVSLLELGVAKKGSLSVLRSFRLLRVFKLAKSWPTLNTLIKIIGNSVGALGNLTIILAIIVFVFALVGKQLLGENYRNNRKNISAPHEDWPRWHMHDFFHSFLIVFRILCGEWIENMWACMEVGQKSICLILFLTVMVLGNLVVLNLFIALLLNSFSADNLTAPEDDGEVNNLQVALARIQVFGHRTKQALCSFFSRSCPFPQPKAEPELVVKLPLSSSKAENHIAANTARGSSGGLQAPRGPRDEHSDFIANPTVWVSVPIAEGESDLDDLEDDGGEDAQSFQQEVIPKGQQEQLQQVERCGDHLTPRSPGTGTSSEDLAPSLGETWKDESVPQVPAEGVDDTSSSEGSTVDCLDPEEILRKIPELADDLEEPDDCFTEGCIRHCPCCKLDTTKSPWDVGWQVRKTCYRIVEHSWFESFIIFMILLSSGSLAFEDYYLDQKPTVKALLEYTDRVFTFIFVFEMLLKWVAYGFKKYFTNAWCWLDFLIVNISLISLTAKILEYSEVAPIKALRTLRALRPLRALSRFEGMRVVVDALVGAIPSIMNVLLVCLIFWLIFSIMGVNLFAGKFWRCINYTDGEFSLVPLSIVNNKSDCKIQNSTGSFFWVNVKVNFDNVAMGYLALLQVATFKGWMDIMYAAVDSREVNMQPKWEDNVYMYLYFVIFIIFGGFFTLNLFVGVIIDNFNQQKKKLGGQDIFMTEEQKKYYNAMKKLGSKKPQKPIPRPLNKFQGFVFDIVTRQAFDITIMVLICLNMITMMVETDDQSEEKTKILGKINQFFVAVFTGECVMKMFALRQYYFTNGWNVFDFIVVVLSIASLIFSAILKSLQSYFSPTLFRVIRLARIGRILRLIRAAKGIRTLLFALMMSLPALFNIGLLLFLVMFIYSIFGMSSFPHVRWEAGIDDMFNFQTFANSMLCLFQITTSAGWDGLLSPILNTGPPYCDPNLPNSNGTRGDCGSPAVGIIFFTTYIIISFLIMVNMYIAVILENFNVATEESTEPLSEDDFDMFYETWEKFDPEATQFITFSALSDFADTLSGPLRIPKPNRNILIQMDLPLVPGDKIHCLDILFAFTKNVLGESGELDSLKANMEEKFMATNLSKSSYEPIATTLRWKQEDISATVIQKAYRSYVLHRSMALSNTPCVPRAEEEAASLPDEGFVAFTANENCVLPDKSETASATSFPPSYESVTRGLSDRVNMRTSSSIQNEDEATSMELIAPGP
Assay [2] addresses T2, NaV1.3 (Homo sapiens, UniProt Q9NY46). Briefly: VIPR optical membrane potential assay, NaV 1.3 inhibition. Type of assay: cell-based. Conditions: activity against NaV 1.3 channel. Further details: expressed in transfected cells; host or cells: HEK293. On the procedure:
as §1, §2, §3
Target sequence in this assay (Q9NY46 whole entry): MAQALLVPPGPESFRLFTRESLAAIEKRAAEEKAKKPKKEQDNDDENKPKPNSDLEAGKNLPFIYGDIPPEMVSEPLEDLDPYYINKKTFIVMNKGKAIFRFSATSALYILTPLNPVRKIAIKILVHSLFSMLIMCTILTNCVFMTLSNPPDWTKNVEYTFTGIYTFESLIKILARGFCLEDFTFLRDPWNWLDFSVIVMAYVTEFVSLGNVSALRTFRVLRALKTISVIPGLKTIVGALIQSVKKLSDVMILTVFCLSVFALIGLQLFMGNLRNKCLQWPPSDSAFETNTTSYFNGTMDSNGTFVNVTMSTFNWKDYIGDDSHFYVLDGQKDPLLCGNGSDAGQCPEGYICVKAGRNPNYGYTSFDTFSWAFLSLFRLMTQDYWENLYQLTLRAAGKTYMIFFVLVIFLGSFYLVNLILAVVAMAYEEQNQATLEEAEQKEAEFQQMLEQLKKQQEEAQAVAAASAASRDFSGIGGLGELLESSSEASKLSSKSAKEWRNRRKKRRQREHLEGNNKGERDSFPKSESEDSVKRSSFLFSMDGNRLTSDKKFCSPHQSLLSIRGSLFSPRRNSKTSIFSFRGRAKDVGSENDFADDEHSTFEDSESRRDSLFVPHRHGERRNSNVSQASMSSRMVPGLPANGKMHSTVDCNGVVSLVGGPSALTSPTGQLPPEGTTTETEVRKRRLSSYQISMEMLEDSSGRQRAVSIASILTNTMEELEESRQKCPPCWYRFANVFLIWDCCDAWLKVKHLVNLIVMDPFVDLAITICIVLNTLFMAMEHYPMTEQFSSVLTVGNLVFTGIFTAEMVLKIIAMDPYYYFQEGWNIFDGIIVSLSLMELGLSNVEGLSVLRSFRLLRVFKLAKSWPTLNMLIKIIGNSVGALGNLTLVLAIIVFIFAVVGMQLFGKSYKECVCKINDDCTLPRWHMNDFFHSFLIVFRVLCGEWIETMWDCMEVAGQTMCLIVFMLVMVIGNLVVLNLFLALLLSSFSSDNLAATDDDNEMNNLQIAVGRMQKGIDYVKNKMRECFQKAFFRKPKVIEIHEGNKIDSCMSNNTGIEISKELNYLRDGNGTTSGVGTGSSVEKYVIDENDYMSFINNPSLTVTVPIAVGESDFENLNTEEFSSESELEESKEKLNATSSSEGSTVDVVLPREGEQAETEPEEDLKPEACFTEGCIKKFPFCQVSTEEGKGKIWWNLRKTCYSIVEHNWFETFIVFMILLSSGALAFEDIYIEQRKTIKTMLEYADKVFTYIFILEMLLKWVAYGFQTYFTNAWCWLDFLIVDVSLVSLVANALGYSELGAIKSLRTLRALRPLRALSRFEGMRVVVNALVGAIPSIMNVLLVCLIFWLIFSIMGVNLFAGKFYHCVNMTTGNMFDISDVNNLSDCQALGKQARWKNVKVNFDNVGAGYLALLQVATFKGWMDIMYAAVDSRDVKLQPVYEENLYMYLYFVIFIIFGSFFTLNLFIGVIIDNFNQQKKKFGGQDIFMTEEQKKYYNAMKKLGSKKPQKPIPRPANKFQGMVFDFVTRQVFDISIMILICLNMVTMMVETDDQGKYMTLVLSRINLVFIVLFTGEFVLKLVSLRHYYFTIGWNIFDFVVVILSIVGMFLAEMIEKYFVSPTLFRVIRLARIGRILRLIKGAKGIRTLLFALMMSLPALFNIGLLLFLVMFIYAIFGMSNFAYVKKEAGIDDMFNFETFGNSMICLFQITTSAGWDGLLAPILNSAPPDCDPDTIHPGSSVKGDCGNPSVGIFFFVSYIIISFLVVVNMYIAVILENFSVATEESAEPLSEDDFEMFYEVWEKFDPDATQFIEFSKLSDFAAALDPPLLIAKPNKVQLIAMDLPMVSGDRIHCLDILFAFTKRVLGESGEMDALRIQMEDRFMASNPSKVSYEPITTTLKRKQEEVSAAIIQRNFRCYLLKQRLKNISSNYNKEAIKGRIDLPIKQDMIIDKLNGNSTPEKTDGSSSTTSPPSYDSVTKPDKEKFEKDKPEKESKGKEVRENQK
HEK293 cells stably expressing NaV1.3 are plated into 96-well microtiter plates. After an appropriate incubation period, the cells are stained with the voltage sensitive dyes CC2-DMPE/DiSBAC2(3) as follows.
Reagents: • 100 mg/mL Pluronic F-127 (Sigma #P2443), in dry DMSO • 10 mM DiSBAC2(3) (Aurora #00-100-010) in dry DMSO • 10 mM CC2-DMPE (Aurora #00-100-008) in dry DMSO • 200 mM ABSC1 in H2O • Hank's Balanced Salt Solution (Hyclone #SH30268.02) supplemented with 10 mM HEPES (Gibco #15630-080)
2×CC2-DMPE=20 μM CC2-DMPE: 10 mM CC2-DMPE is vortexed with an equivalent volume of 10% pluronic, followed by vortexing in required amount of HBSS containing 10 mM HEPES. Each cell plate will require 5 mL of 2×CC2-DMPE. 50 μL of 2×CC2-DMPE is to wells containing washed cells, resulting in a 10 μM final staining concentration. The cells are stained for 30 minutes in the dark at RT.
2×DISBAC2(3) with ABSC1=6 μM DISBAC2(3) and 1 mM ABSC1: The required amount of 10 mM DISBAC2(3) is added to a 50 ml conical tube and mixed with 1 μL 10% pluronic for each mL of solution to be made and vortexed together. Then HBSS/HEPES is added to make up 2× solution. Finally, the ABSC1 is added.
The 2× DiSBAC2(3) solution can be used to solvate compound plates. Note that compound plates are made at 2× drug concentration. Wash stained plate again, leaving residual volume of 50 μL. Add 50 uL/well of the 2× DiSBAC2(3) w/ABSC1. Stain for 30 minutes in the dark at RT.
The electrical stimulation instrument and methods of use are described in ION Channel Assay Methods PCT/US01/21652, herein incorporated by reference. The instrument comprises a microtiter plate handler, an optical system for exciting the coumarin dye while simultaneously recording the coumarin and oxonol emissions, a waveform generator, a current-or voltage-controlled amplifier, and a device for inserting electrodes in well. Under integrated computer control, this instrument passes user-programmed electrical stimulus protocols to cells within the wells of the microtiter plate. […]

For assay [3], the target named is T2, NaV1.3. Conditions: read-out: TTX IC50; cited from earlier work.
Target sequence in this assay (Q9NY46 whole entry, looked up): as the sequence (Q9NY46 whole entry) above
Another assay concerns the target NaV1.6 (Homo sapiens, UniProt Q9UQD0). Conditions: read-out: TTX IC50; cited from earlier work.
Assay [4] has as its target T1, NaV1.8. Particulars: read-out: TTX IC50; cited from earlier work.
Target sequence in this assay (Q9Y5Y9 whole entry, looked up): as the sequence (Q9Y5Y9 whole entry) above
Another assay concerns the target NaV1.9 (Homo sapiens, UniProt Q9UI33). Conditions: read-out: TTX IC50; cited from earlier work.
For another assay, the target named is NaV1.1 (Homo sapiens, UniProt P35498). Particulars: read-out: TTX IC50; cited from earlier work.
The target of the next assay is NaV1.2 (Homo sapiens, UniProt Q99250). Particulars: read-out: TTX IC50; cited from earlier work.

Each structure is given as a SMILES string. Read-outs that look alike come from different tables or passages of the source. Where only a bound is given, the exact number is not on record here.

A word on the IC50: it is the concentration that inhibits the measured activity by half. As for `Cc1oc(C(C)(C)C)cc1C(=O)Nc1cccc(S(N)(=O)=O)c1` [Compound 3], the IC50 at NaV 1.7 channel is 10 to 20 µM; at NaV1.8 [1], less than 2 µM; at NaV1.3 [2], more than 20 µM.

For `C[C@@H](c1ccc(F)cc1)N1CCN(Cc2oc(C(C)(C)C)cc2C(=O)Nc2cccc(S(N)(=O)=O)c2)CC1` [Compound 5], at NaV1.3 [2], the 50% inhibitory concentration (IC50) fell in the range of 10 to 20 µM.

In the case of `CC(C)(C)c1cc(C(=O)Nc2cccc(S(N)(=O)=O)c2)c(CN2CCCCC2)o1` [Compound 6], the half-inhibitory concentration (IC50) on NaV1.8 [1] was 2 to 10 µM; on NaV1.3 [2] it was more than 20 µM.

Take `Cc1oc(CC(C)C)c(CN2CCOCC2)c1C(=O)Nc1cccc(S(N)(=O)=O)c1` [Compound 7]: the values for the half-inhibitory concentration (IC50) on NaV 1.7 channel, at NaV1.8 [1] and on NaV1.3 [2] were 2 to 10 µM, 10 to 20 µM and more than 20 µM, respectively.

As for `Cc1oc(C(C)(C)C)c(CN2CCOCC2)c1C(=O)Nc1cccc(S(N)(=O)=O)c1` [Compound 8], the half-maximal inhibitory concentration (IC50) on NaV 1.7 channel was 10 to 20 µM; at NaV1.8 [1], more than 20 µM; at NaV1.3 [2] it was more than 20 µM.

Take `CCN(CC)Cc1oc(-c2ccccc2)cc1C(=O)Nc1cccc(S(N)(=O)=O)c1` [Compound 9]: the half-inhibitory concentration (IC50) at NaV 1.7 channel, on NaV1.8 [1] and at NaV1.3 [2] was 2 to 10 µM in each case.

For `Cc1ccc(OCc2occc2C(=O)Nc2cccc(S(N)(=O)=O)c2)cc1` [Compound 10], the half-inhibitory concentration (IC50) on NaV 1.7 channel and at NaV1.3 [2] was more than 20 µM throughout.

`Cc1oc(CC(C)C)c(CN2CCCC2)c1C(=O)Nc1cccc(S(N)(=O)=O)c1` [Compound 11]: the half-inhibitory concentration (IC50) at NaV 1.7 channel fell in the range of 2 to 10 µM; at NaV1.8 [1] it was 10 to 20 µM; on NaV1.3 [2], 10 to 20 µM.

Regarding `Cc1oc(CC(C)C)c(CN2CCCCC2)c1C(=O)Nc1cccc(S(N)(=O)=O)c1` [Compound 12], the IC50 lay within 2 to 10 µM on NaV 1.7 channel, 2 to 10 µM at NaV1.8 [1] and 10 to 20 µM on NaV1.3 [2].

For `Cc1oc(C(C)(C)C)c(CO)c1C(=O)Nc1cccc(S(N)(=O)=O)c1` [Compound 13], the IC50 on NaV 1.7 channel is 10 to 20 µM; at NaV1.8 [1] it was less than 2 µM; at NaV1.3 [2] it was 10 to 20 µM.

For the compound `Cc1coc(C)c1C(=O)Nc1cccc(S(N)(=O)=O)c1` [Compound 14], the IC50 on NaV 1.7 channel, on NaV1.8 [1] and on NaV1.3 [2] was more than 20 µM throughout.

As for `Cc1oc(C(C)(C)C)cc1C(=O)Nc1cccc(S(N)(=O)=O)c1` [Compound 18], the results for the half-maximal inhibitory concentration (IC50) on NaV 1.7 channel, on NaV1.8 [1] and on NaV1.3 [2] were 10 to 20 µM, less than 2 µM and 10 to 20 µM, respectively.

In the case of `NS(=O)(=O)c1cccc(NC(=O)c2cc(-c3ccc(Cl)cc3)cs2)c1` [Compound 19], the half-inhibitory concentration (IC50) at NaV1.3 [2] was in the range of 10 to 20 µM.

Consider `NS(=O)(=O)c1cc(NC(=O)c2cc(-c3cccc(Cl)c3)oc2C(F)(F)F)ccc1Cl` [Compound 20], for which the IC50 at NaV1.3 [2] was more than 20 µM.

With `NS(=O)(=O)c1cccc(NC(=O)c2cccnc2Oc2ccc(Cl)cc2)c1` [Compound 21], the IC50 on NaV1.8 [1] and on NaV1.3 [2] was more than 20 µM each time.

Turning to `CC(C)(C)c1ccc(C(=O)Nc2cccc(S(N)(=O)=O)c2)cn1` [Compound 22, 6-tert-Butyl-N-(3-(aminosulfonyl)phenyl)pyridine-3-carboxamide], the results for the IC50 on NaV 1.7 channel, at NaV1.8 [1] and at NaV1.3 [2] were more than 20 µM, 10 to 20 µM and more than 20 µM, respectively.

Consider `CC(C)(C)c1nnc(C(=O)Nc2cccc(S(N)(=O)=O)c2)s1` [Compound 23, 5-tert-Butyl-N-(3-sulfamoylphenyl)-1,3,4-thiadiazole-2-carboxamide], for which the half-maximal inhibitory concentration (IC50) at NaV 1.7 channel, at NaV1.8 [1] and at NaV1.3 [2] was more than 20 µM each time.

`Cc1nc(C(C)(C)C)sc1C(=O)Nc1cccc(S(N)(=O)=O)c1` [Compound 24]: the half-inhibitory concentration (IC50) on NaV 1.7 channel and on NaV1.3 [2] was more than 20 µM in each case.

As for `Cc1oc(C(C)(C)C)nc1C(=O)Nc1cccc(S(N)(=O)=O)c1` [Compound 25], the concentration for half-maximal inhibition (IC50) on NaV 1.7 channel was 10 to 20 µM; at NaV1.8 [1], 10 to 20 µM; at NaV1.3 [2], more than 20 µM.

Regarding `CC(C)(C)c1nc(C(=O)Nc2cccc(S(N)(=O)=O)c2)n(Cc2ccccc2)n1` [Compound 26, 5-tert-Butyl-2-benzyl-N-(3-(aminosulfonyl)phenyl)-2H-1,2,4-triazole-3-carboxamide], the 50% inhibitory concentration (IC50) on NaV1.8 [1] is 10 to 20 µM; at NaV1.3 [2], more than 20 µM.

For `Cn1nc(C(C)(C)C)nc1C(=O)Nc1cccc(S(N)(=O)=O)c1` [Compound 27], at NaV1.3 [2], the IC50 was more than 20 µM.

`NS(=O)(=O)c1cccc(NC(=O)c2ccc(-c3cccc(C(F)(F)F)c3)o2)c1` [Compound 29]: the half-maximal inhibitory concentration (IC50) at NaV 1.7 channel lay within 10 to 20 µM; at NaV1.3 [2] it was 2 to 10 µM.

Consider `NS(=O)(=O)c1cccc(NC(=O)c2cc(-c3ccccc3)on2)c1` [Compound 30], for which, on NaV 1.7 channel, the IC50 was in the range of 10 to 20 µM.

As for `COc1ccc(-c2cc(C(=O)Nc3cccc(S(N)(=O)=O)c3)on2)cc1` [Compound 31], at NaV 1.7 channel, the IC50 is more than 20 µM.

In the case of `COc1cccc(-c2cc(C(=O)Nc3cccc(S(N)(=O)=O)c3)no2)c1` [Compound 32], on NaV 1.7 channel, the half-maximal inhibitory concentration (IC50) was more than 20 µM.

On to `NC1=N[C@H](O)[C@H]2[C@H]3O[C@]4(O)O[C@@H]([C@@H](O)[C@@]2(N1)[C@@H]4O)[C@]3(O)CO` [TTX, tetrodotoxin], for which the IC50 is 0.015 µM on NaV1.3 [3]; 0.006 µM at NaV1.6; more than 50 µM on NaV1.8 [4]; 1 µM on NaV1.9; 0.01 µM on NaV1.1; 0.01 µM on NaV1.2.

Source of the values: patent US8519137B2, “Heteroaryl amides useful as inhibitors of voltage-gated sodium channels” (Vertex Pharmaceuticals Incorporated, priority 2007, dated 2013).
